In patent publication US9023386B2, “Microspheres comprising nanocapsules containing a lipophilic drug” (Yissum Research Development Company of the Hebrew …, priority 2006, dated 2015):

Assays:
[1] = cited from earlier work
[2] = tested on: P-gp; test: Caco-2 uptake study (apparent permeability); format: in vitro ADME; settings: human; Caco-2, 25 μg/ml tacrolimus, Hanks buffer pH 7.4, 60 min, without verapamil
Protocol: Caco-2 monolayers (passage 73) were grown in Dulbecco's modified Eagle's medium supplemented with 10% fetal bovine serum, 1% L-glutamine, 1% nonessential amino acids, and 5% antibiotic-antimycotic solution at 37° C. in humidified air, 5% CO2 atmosphere. The culture medium was first replaced after 72 h and every 48 h thereafter. The uptake studies were conducted with monolayers between 8 to 10 days in culture. All diffusion experiments were performed over 1 h at 37° C. Prior to the experiments, the culture medium was replaced with transport medium and cell monolayers were subsequently equilibrated for 30 min at 37° C. before the uptake study. Transport medium was Hanks buffer composed of 136.89 mM NaCl, 5.36 mM KCl, 0.34 mM Na2HPO4, 0.44 mM KH2PO4, 0.41 mM MgSO4 7H2O, 19.45 mM glucose, 1.26 mM CaCl2, 0.49 mM MgCl2.6H2O, 4.17 mM NaHCO3, 10 mM HEPES, and the pH was adjusted to 7.4. […] The lysate was collected in clean tube and tacrolimus was determined by HPLC as described above. […]
The apparent permeability (Papp, cm/s) was calculated according to the following equation described by Schrickx and Fink-Gremmels (J. Schrickx and J. Fink-Gremmels. P-glycoprotein-mediated transport of oxytetracycline in the Caco-2 cell model. J. Vet Pharmacol. Therap. 30: 25-31 (2007).

[3] = immunosuppression; cited from earlier work
[4] = In-vitro stability of tacrolimus in rat intestinal juice (pH 6.5); format: in vitro ADME
Protocol: The following solutions were added sequentially to a test tube: 300 μl of freshly thawed intestinal juice, 60 μl of 0.6 M phosphate buffer, pH 6.5 (the pH of the mixture of intestinal juice) and 25 μg/ml of tacrolimus in various formulations (up to 1.5 ml). The mixtures were stirred and incubated at 37° C. over time. At given time intervals of 5, 10, 20, 30, 45, 60, 90 and 120 min, the samples were withdrawn from the incubation, mixed with 150 μl of 0.5 M hydrochloric acid and 2 ml of ethyl acetate. The resulting mixtures were stirred vigorously and centrifuged at 4000 rpm (equivalent to 3000 g) over 10 min. The extraction of tacrolimus by ethyl acetate was repeated three times to ensure total removal of the drug from the mixtures. The different ethyl acetate layers (upper layers) were transferred to clean tubes and evaporated under nitrogen to dryness. The combined residues were dissolved in 1 ml of acetonitrile, and 50 μl were injected in the HPLC under the following conditions: Mobile phase Acetonitrile 100%, Flow rate 0.5 ml/min, Wavelength—213 nm, Column—LiChrospher® 100 RP-18 (5 μm), 4/120 mm.

C=CC[C@@H]1/C=C(\C)C[C@H](C)C[C@H](OC)[C@H]2O[C@@](O)(C(=O)C(=O)N3CCCC[C@H]3C(=O)O[C@H](/C(C)=C/[C@@H]3CC[C@@H](O)[C@H](OC)C3)[C@H](C)[C@@H](O)CC1=O)[C@H](C)C[C@@H]2OC [tacrolimus]
oral bioavailability ([1]; in vivo, po): 10-25%
dose excreted unchanged in the urine ([1]; in vivo): Less than 1%
drug bound by erythrocytes ([1]; in vivo): 75-80%
whole blood concentrations relative to plasma concentrations ([1]; in vivo): 10- to 30 times
elimination half-life ([1]; liver transplant patients): about 12 hours
Papp at 60 min, 25 μg/ml [2]: 2.05 ± 0.26 ×10⁻⁶ cm/s
potency relative to cyclosporine [3]: 10-100 times
tacrolimus stability incubated only with PBS (Control (−)) ([4]; PBS pH 6.5, no intestinal juice, 120 min incubation): remained intact
initial tacrolimus concentration decomposed / reduced ([4]; intestinal juice with PBS pH 6.5, 37° C., 25 μg/ml tacrolimus, up to 120 min): at least 50%
